The nature of data set [1]: Reducing activity of the stable radical DPPH. It counts as biochemical. The protocol: The novel derivatives were studied for their interaction with the sTable 2,2-diphenyl-1-picrylhydrazyl free radical (DPPH)at concentration 50 µM, 100 µM and 200 µM after 20 and 60 min (Table 2). In this assay the DPPH radical is reduced transferring one electron from the antioxidant. Phenolic compounds such as catechol and derivatives generate phenoxide anions with strong antioxidant capacity. Nordihydroguaretic acid (NDGA), the reference compound acts by this mechanism. Compound 10 presents the highest scavenging activity at 100 µM after 20 min correlated with the presence of the phenolic OH. Compounds 3, 4, 5, 7 presented medium activities depending from time and concentration. The presence of the heteroatom O or S seems to influence the activity e.g., derivatives 1, 2, and 3. Replacement of phenyl ring (4) by a thienyl group (1) decreases antioxidant behavior. […] On the contrary the presence of the furyl ring (3) enhances reduction. Additionally, the presence of a π-dimethyl-amino group 6 reduces the scavenging ability whereas its absence in (5), increases the activity. The presence of two conjugated double bonds (5) leads to lower activity compared to the simpler compound 4. Compounds 9 and 10 present the highest milogP values (5.94). Both include a phenolic hydrogen in their structure. […] On the contrary in compound 9 steric reasons are possible to lead to a decrease. Lipophilicity seems to influence the interaction of compound 10.
To a solution of DPPH in absolute ethanol an equal volume of the compounds with final concentrations of 50, 100 and 200 µM from a stock solution of 10 mM (in 1% DMSO and ethanol) was added. After 20 and 60 min the absorbance was recorded at 517 nm at room temperature (Table 2).
Background: The DPPH test is a chemical assay of radical scavenging.

The target of another data set is T1, bovine thrombin (Bos taurus, UniProt P00735).
T1 construct: purchased Sigma Chemical, Co. (St. Louis)
Nature of the data set: In vitro inhibition of thrombin. The following applies: substrate tosyl-Gly-Pro-Arg-pNA, no = no action under the experimental conditions; for inhibition at 100 µM: read-out: TH% 100 µM (thrombin inhibition). It counts as biochemical. The protocol: It is well known that indandione derivatives exert their anticoagulant activity indirectly by inhibiting prothrombin synthesis in the liver. […] Derivatives 1, 2, 5, 8, 9, 10, and 12 were tested in vitro as possible thrombin inhibitors. Among the tested derivatives compound 8 presented 100% inhibition followed by compounds […] and 10.
As a substrate tosyl-Gly-Pro-Arg-pNA acetate salt was used at 1 mM final concentration. Compounds were dissolved at a final concentration of […] in a Tris-buffer (0.05 M Tris, 0.154 M NaCl, ethanol 5%, pH = 8.0). Three minutes after the addition of bovine thrombin (2.5 unit/mg), the reaction was ended by adding 1 mL acetic acid 50%. The absorption of the released p-nitro-aniline was measured at 405 nm (Table 3). Warfarin and Inogatran were used as reference compounds.

Data set [2] in a line: Inhibition of linoleic acid peroxidation induced by AAPH. It counts as biochemical. Particulars: no = no action under the experimental conditions. The source says:
In the water soluble 2,2′-azobis(2-amidinopropane) hydrochloride (AAPH) the free radicals are produced in vitro through spontaneous thermal decomposition resembling to lipid peroxidation in cells due to the action of the peroxyl radicals. […] Compounds 11, 5, 4 and 3 presented no activity under the experimental conditions. From the experimental results it can be concluded that the 3,5-di-tert-butyl-group offers protection against lipid peroxidation. Electronic parameters expressed by the highest occupied molecular orbital (HOMO) describes better the biological activity (Equation (2)). log AAPH % = −22.042(± 8.731) HOMO − 4.853 (2.622)(2) n = 8, r = 0.930, r^2 = 0.864, q^2 = 0.567, s = 0.146, F1,8 = 5.783, α = 0.1
The oxidation reaction was started with 2,2′-Azobis(2-amidinopropane) dihydrochloride (AAPH) as a free radical initiator. Linoleic acid sodium salt was oxidized at 234 nm to a conjugated diene hydroperoxide resulting an increased absorption. Trolox was used as reference compound (93%) (Table 3).

Data set [3] can be described thus: ABTS+. decolorization assay. It counts as biochemical. The following applies: 1 min, no = no action under the experimental conditions. The source says:
The radical cation ABTS^+• is directly generated through potassium persulfate by oxidation with no participation of an intermediary radical and then the reduction is followed by adding electron-donating antioxidants. In this assay the radical is generated before adding the antioxidant (decolorization assay). […] It seems that lipophilicity influences the activity, since both are presenting high lipophilicity values. […] The radical cation ABTS^+• was generated from an ABTS stock solution in water (7 mM) which was mixed with potassium persulfate (2.45 mM) and left in the dark at room temperature for 12–16 h before use. The results are recorded after 1min of the mixing solutions at 734 nm and compared to the appropriate standard inhibitor Trolox (Table 3).

Data set [4] is described as follows: Experimental lipophilicity as RM values by RPTLC. It counts as physicochemical. Also noted: key: RM = log[(1/Rf) − 1], from Rf values by RPTLC. Particulars: methanol/water 70/30, 24 °C, average of at least 5 measurements. The text has this:
Lipophilicity is a physicochemical parameter indicating the relationship of a drug to its biological activity. It affects ligand-target binding interactions, solubility, ADME (absorption, distribution, bioavailability, metabolism, and elimination) and toxicological effects. RPTLC (reverse phase thin layer chromatography) method was used for the experimental determination, as RM values. The RPTLC method is considered a secure, rapid and appropriate method for expressing the lipophilic character of a compound (Table 1).
Reversed phase TLC (RPTLC) was performed on silica gel plates impregnated with 5% (v/v) liquid paraffin in light petroleum ether. The mobile phase was a methanol/water mixture (70/30, v/v). The plates were developed in closed chromatography tanks saturated with the mobile phase at 24 °C. Spots were detected under UV light. Five individual measurements of Rf values were recorded and used for the determination of RM using the equation RM = log [(1/Rf) − 1] [59, 60, 62] (Table 2).

For another data set, the system named is trypsin. Nature of the data set: In vitro inhibition of trypsin induced proteolysis. Format: biochemical. Particulars: bovine albumin substrate, no = no action under the experimental conditions. Here is the method: Serine proteases are implicated in the pathophysiology of inflammatory diseases and trypsin is well known years ago [66]. Trypsin has been associated with host defense reactions and tissue damage. In this study, the novel derivatives have been evaluated towards trypsin and thrombin. Compounds 8 and 9 present high activity.
The Kunitz method was used after modification using bovine albumin was used as substrate for trypsin. In this assay, first 200 μL of 0.075 mg/mL trypsin and 780 μL of phosphate buffer pH 7.6 including the tested compounds (20 μL in DMSO, final concentration 100 μM) were pre-incubated at 37 °C for 20 min and then added 1 mL of albumin (stock solution 6 g/100 mL in phosphate buffer 0.1 M, pH 7.6) and incubated at 37 °C for 30 min. Secondly 1mLof 5% trichloroacetic acid was added to the incubated solution to stop the enzyme’s reaction and allowed to set at room temperature for 1 h. Then the solution was filtered, and the absorption of the filtrate was measured at 280 nm using salicylic acid as a reference compound [61] (Table 3).

Take `CN(C)c1ccc(/C=C\C=C2C(=O)c3ccccc3C2=O)cc1` [Compound 6, (Z)-2-(3-(4-(dimethylamino)phenyl)allylidene)-1H-indene-1,3(2H)-dione]: the melting point – broadly, the temperature, or range, at which the solid turns liquid – lay in the range of 85 to 87 °C. Further, in data set [1], the “RA% 50 µM 20 min” value is recorded as 6%, the “RA% 50 µM 60 min” value stood at 6%, the “RA% 100 µM 20 min” value is 22% and the “RA% 100 µM 60 min” value was found to be 23%. Also, in data set [1], the “RA% 200 µM 20 min” value amounted to 15% and the “RA% 200 µM 60 min” value was 18%. At bovine thrombin, the inhibition (in general, how much of the control response was suppressed) at 100 µM is 19%. Further, the “AAPH% 100 µM (anti-lipid peroxidation)” value in data set [2] was found to be 9%. For the same compound, the “ABTS+. % 100 µM (decolorization activity)” value (“ABTS+. % 100 µM” for short) in data set [3] amounted to 22%. In addition, the “RM (±SD)” value in data set [4] is −0.527 ± 0. The “Iptr% 100 µM (inhibition of trypsin induced proteolysis)” value in the data set with trypsin is 29%.
`O=C1C(=Cc2ccc(OCc3ccc(Br)cc3)cc2)C(=O)c2ccccc21` [Compound 8, (Z)-2-(4-((4-bromobenzyl)oxy)benzylidene)-1H-indene-1,3(2H)-dione] came in with a melting point of 222 to 224 °C. In addition, in data set [1], the “RA% 50 µM 20 min” value came to 4%, the “RA% 50 µM 60 min” value was 5%, the “RA% 100 µM 20 min” value was 7% and the “RA% 100 µM 60 min” value was 7%. For the same compound, in data set [1], the “RA% 200 µM 20 min” value was 0% and the “RA% 200 µM 60 min” value is given as 0%. For the same compound, the inhibition at 100 µM on bovine thrombin was 100%. Besides, the “AAPH% 100 µM (anti-lipid peroxidation)” value in data set [2] was 79%. Also, in data set [3], the “ABTS+. % 100 µM” value was found to be 16%. In addition, in the data set on trypsin, the “Iptr% 100 µM (inhibition of trypsin induced proteolysis)” value was found to be 85%.
On to `Cc1ccc(C=C2C(=O)c3ccccc3C2=O)o1` [Compound 3, (Z)-2-((5-methylfuran-2-yl)methylene)-1H-indene-1,3(2H)-dione], for which, in data set [1], the “RA% 50 µM 20 min” value is recorded as 20%, the “RA% 50 µM 60 min” value is listed as 23%, the “RA% 100 µM 20 min” value amounted to 37% and the “RA% 100 µM 60 min” value was 40%. Further, in data set [1], the “RA% 200 µM 20 min” value is on record as 61% and the “RA% 200 µM 60 min” value amounted to 75%. On bovine thrombin, the inhibition at 100 µM turned out to be 39%. Further, the “AAPH% 100 µM (anti-lipid peroxidation)” value in data set [2] was “no activity and no”. The “ABTS+. % 100 µM” value in data set [3] worked out at 20%. For the same compound, the “RM (±SD)” value in data set [4] is reported as 0.014 ± 0. Moreover, in the data set on trypsin, the “Iptr% 100 µM (inhibition of trypsin induced proteolysis)” value is 17%.
For the compound `O=C1C(=Cc2c[nH]c3ccccc23)C(=O)c2ccccc21` [Compound 12, (Z)-2-((1H-indol-3-yl)methylene)-1H-indene-1,3(2H)-dione], the melting point fell in the range of 283 to 285 °C. In addition, in data set [1], the “RA% 50 µM 20 min” value was determined as 3%, the “RA% 50 µM 60 min” value is recorded as 3%, the “RA% 100 µM 20 min” value is given as 17% and the “RA% 100 µM 60 min” value was determined as 17%. In data set [1], the “RA% 200 µM 20 min” value was determined as 4% and the “RA% 200 µM 60 min” value is 6%. Moreover, the “AAPH% 100 µM (anti-lipid peroxidation)” value in data set [2] is given as 31%. Further, the “ABTS+. % 100 µM” value in data set [3] was “no”. In data set [4], the “RM (±SD)” value is −0.134 ± 0.02. The “Iptr% 100 µM (inhibition of trypsin induced proteolysis)” value with trypsin is “do not present any activity and no”.
In the case of `CC(C)(C)c1cc(C=C2C(=O)c3ccccc3C2=O)c(O)c(C(C)(C)C)c1` [Compound 9, (Z)-2-(3,5-di-tert-butyl-2-hydroxybenzylidene)-1H-indene-1,3(2H)-dione], the melting point was 52 to 54 °C. In addition, in data set [1], the “RA% 50 µM 20 min” value is 4%, the “RA% 50 µM 60 min” value stood at 3%, the “RA% 100 µM 20 min” value amounted to 3% and the “RA% 100 µM 60 min” value stood at 1%. In data set [1], the “RA% 200 µM 20 min” value was determined as 6% and the “RA% 200 µM 60 min” value is recorded as 6%. In addition, on bovine thrombin, the inhibition at 100 µM was 0%. Further, the “AAPH% 100 µM (anti-lipid peroxidation)” value in data set [2] is 96%. Also, the “ABTS+. % 100 µM” value in data set [3] is “no”. In addition, the “RM (±SD)” value in data set [4] was −1.038 ± 0. Further, the “Iptr% 100 µM (inhibition of trypsin induced proteolysis)” value in the data set with trypsin turned out to be 98%.
Consider `O=C1C(=Cc2ccccc2)C(=O)c2ccccc21` [Compound 4, 2-benzylidene-1H-indene-1,3(2H)-dione], for which, in data set [1], the “RA% 50 µM 20 min” value was found to be 5%, the “RA% 50 µM 60 min” value came out at 10%, the “RA% 100 µM 20 min” value was 26% and the “RA% 100 µM 60 min” value turned out to be 32%. For the same compound, in data set [1], the “RA% 200 µM 20 min” value is recorded as 23% and the “RA% 200 µM 60 min” value is on record as 32%. For the same compound, the “TH% 100 µM (thrombin inhibition)” value at bovine thrombin is on record as “no”. Further, in data set [2], the “AAPH% 100 µM (anti-lipid peroxidation)” value is “no activity and no”. Besides, the “ABTS+. % 100 µM” value in data set [3] is on record as 19%. Moreover, the “RM (±SD)” value in data set [4] was −0.615 ± 0.02. In addition, the “Iptr% 100 µM (inhibition of trypsin induced proteolysis)” value in the data set with trypsin worked out at 4%.
For `Cc1ccsc1C=C1C(=O)c2ccccc2C1=O` [Compound 2, (Z)-2-((3-methylthiophen-2-yl)methylene)-1H-indene-1,3(2H)-dione], the melting point lay within 171 to 172 °C. In data set [1], the “RA% 50 µM 20 min” value was found to be 2%, the “RA% 50 µM 60 min” value came out at 2%, the “RA% 100 µM 20 min” value came to 16% and the “RA% 100 µM 60 min” value is reported as 16%. In data set [1], the “RA% 200 µM 20 min” value amounted to 4% and the “RA% 200 µM 60 min” value is given as 7%. The “AAPH% 100 µM (anti-lipid peroxidation)” value in data set [2] worked out at 92%. Besides, the “ABTS+. % 100 µM” value in data set [3] was 2%. In addition, the “RM (±SD)” value in data set [4] is given as 0.031 ± 0. Further, in the data set with trypsin, the “Iptr% 100 µM (inhibition of trypsin induced proteolysis)” value is “do not present any activity and no”.

Source of the values: publication PMC6930570, “2-Arylidene-1-indandiones as Pleiotropic Agents with Antioxidant and Inhibitory Enzymes Activities” (Molecules, 2019).
